Experimental data as given in patent US7998965B2, “Glutamate aggrecanase inhibitors” (Wyeth LLC, priority 2005, dated 2011).
Converted amounts (≈) assume the structure as drawn.

Experiments:
[1] = test system: bovine articular cartilage treated with Interleukin 1 alpha (IL-1α); test: Bovine articular cartilage explant cultures: inhibition of degradation of proteoglycan; assay type: cell-based; settings: inhibitory effect expressed as percentage, concentration not printed
Method in brief: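 Bovine metacarpal cartilage discs (6 mm), equilibrated in serum-free DMEM-based medium, were treated with 5 ng/ml IL-1 plus compound (working solutions 0.1-10 μg/ml), with medium collected and replaced on days 1, 2 and 3. Released proteoglycan was measured by DMMB absorbance at 520 nm against chondroitin sulphate standards, expressed as μg per mg cartilage, and inhibition given as percentage.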

[2] = test system: Aggrecanase-mediated aggrecan cleavage in human OA cartilage explants; test: Human osteoarthritic cartilage explant efficacy study (BC3 western analysis); assay type: cell-based
From the text: Human OA Cartilage Explant Culture: Discarded tissues from consented knee replacement patients were obtained from New England Baptist Hospital (Brookline, Mass.) in sterile phosphate buffered saline (PBS) after about 2-4 hrs post surgery. Cartilage slices were harvested from the knee specimens and washed several times in PBS. These cartilage slices were cut into appropriate pieces (6-8 mm) and rinsed in PBS and then in media and further cultured for additional days as cartilage explants. The medium consisted of Dulbecco's Modified Eagle's medium (DMEM, JRH Biosciences, Lenexa, Kans.), 50 μg/ml ascorbic acid (Wako, Osaka, Japan), 10 mM HEPES, pH 7.0 (Mediatech, Herndon, Va.), 2 mM L-glutamine (Mediatech), 100 U/ml antibiotic-antimycotic solution (Mediatech).
Test compounds: The test compounds are described in Examples 8OO, 8NNNNNNN, and 8WWWWWWW. Stock solutions of the compounds were prepared at 1 mg/ml in DMSO, aliquoted and stored at −20° C. Working solutions of the compounds were made in DMSO and added to the culture for efficacy studies.
Efficacy study: Cartilage explants were cultured for 2-3 days in DMEM medium in a 37° C. and 5% CO2 environment to equilibrate the tissue. Explants were weighed (˜250 mg) and placed in wells of a 24-well culture dish in 1 ml of medium and 3 replicates per treatment group. For the efficacy study, cartilage explants were cultured for 6 days in the presence or absence of various concentrations of the test compound. The media was replaced on day 3 and the experiment was terminated on day 6. Total aggrecan content of conditioned media was measured by a colorimetric assay with DMMB (Farndale, R W et al., Biochim Biophys Acta. 1986, 883, 173-177).
Western analysis: Aggrecan fragments in conditioned medium were analyzed by western analysis using neoepitope antibody, BC-3 designed to recognize the Aggrecanase-generated N-terminal interglobular neoepitope ^374ARGS. Equal cartilage weight equivalent conditioned media from each replicate well per treatment group was pooled and digested with Chondroitinase ABC (Sigma, St Louis, Mo.), Keratinase I (Seikagaku America, Falmouth, Mass.) and Keratinase II (Seikagaku America, Falmouth, Mass.) for 2 h at 37° C. Samples were concentrated by YM-10 centrifugal filter device (Millipore Corp., Bedford, Mass.), lyophilized and reconstituted with equal volume of water. Samples were separated under reducing conditions on 4-12% gradient Tris-glycine gels (Invitrogen, Carlsbad, Calif.). Proteins from the gels were transferred to nitrocellulose membranes. Immunoblots were probed using Mab BC-3 (Abcam, Cambridge, Mass.). Incubation with primary and alkaline-phosphatase-conjugated secondary goat anti-mouse IgG (Promega Corp., Madison, Wis.) was performed overnight at 4° C. and at room temperature for 1 h, respectively. The immunoblots were incubated with NBT/BCIP substrate (Promega Corp., Madison, Wis.) at room temperature to achieve optimum color development. The aggrecan fragments containing the ARGS neoepitope were quantitated by densitometry analysis and the percentage inhibition of aggrecan degradation by test compounds was determined.

CC(C)(Cc1ccc(F)cc1)NC(=O)[C@H](CCC(=O)O)NC(=O)c1ccc(-c2ccccc2)cc1 [Example 8OO, N^2-(1,1′-biphenyl-4-ylcarbonyl)-N^1-[2-(4-fluorophenyl)-1,1-dimethylethyl]-L-α-glutamine]
bovine ([1]; Table 1, first of two columns headed bovine): 87% | bovine ([1]; Table 1, second of two columns headed bovine): 40% | EC50 ([2]; 144 h, human OA cartilage explants, 6 days, BC3 analysis, read-out: EC50 (inhibition of aggrecanase generated aggrecan fragments)): ~0.15 µg/mL (≈ 0.315 µM) | inhibition at 0.02 µg/mL ([2]; Homo sapiens, 0.02 ug/ml, average of 15 donors, read-out: % inhibition (BC3 analysis)): 8.52% | inhibition at 0.04 µg/mL ([2]; Homo sapiens, 0.04 ug/ml, average of 15 donors, read-out: % inhibition (BC3 analysis)): 26.2% | inhibition at 0.08 µg/mL ([2]; Homo sapiens, 0.08 ug/ml, average of 15 donors, read-out: % inhibition (BC3 analysis)): 42.9% | inhibition at 0.15 µg/mL ([2]; Homo sapiens, 0.15 ug/ml, average of 15 donors, read-out: % inhibition (BC3 analysis)): 49% | inhibition at 0.3 µg/mL ([2]; Homo sapiens, 0.3 ug/ml, average of 15 donors, read-out: % inhibition (BC3 analysis)): 56.4% | inhibition at 0.6 µg/mL ([2]; Homo sapiens, 0.6 ug/ml, average of 15 donors, read-out: % inhibition (BC3 analysis)): 73.9% | inhibition at 1.25 µg/mL ([2]; Homo sapiens, 1.25 ug/ml, average of 15 donors, read-out: % inhibition (BC3 analysis)): 83.4% | inhibition at 2.5 µg/mL ([2]; Homo sapiens, 2.5 ug/ml, average of 15 donors): 101% | inhibition at 5 µg/mL ([2]; Homo sapiens, 5 ug/ml, average of 15 donors): 98.9% | inhibition at 10 µg/mL ([2]; Homo sapiens, 10 ug/ml, average of 15 donors): 102%
